Assay results: patent US20230233650A1, “NOVEL FATTY ACID MODIFIED UROCORTIN 2 DERIVATIVES AND THE USES THEREOF” (Novo Nordisk A/S, priority 2021, published 2023)
Numbered stars: 1 amine (or outer) side, 2 acyl side, 3 side chain; on linkers, the order of the positions; unused ones are H or OH. Side chains are listed from the residue outwards. Peptide text beside a SMILES is read from it. * marks the point of attachment. C20 diacid = O=C(O)CCCCCCCCCCCCCCCCCCC(=O)*; γGlu = O=C(O)[C@H](CCC(=O)[*:2])N[*:1]; AEEA = NCCOCCOCC(=O)O

Legend:
[1] = target: T1, Human CRF1 receptor (Homo sapiens, UniProt P34998); experiment: CRF1 receptor binding, scintillation proximity assay (SPA); conditions: displacement of [125I]-Sauvagine, CHO-K1 cell membranes
T1 construct: host or cells: CHO-K1 (membrane preparation)
T1 sequence (P34998 24-415): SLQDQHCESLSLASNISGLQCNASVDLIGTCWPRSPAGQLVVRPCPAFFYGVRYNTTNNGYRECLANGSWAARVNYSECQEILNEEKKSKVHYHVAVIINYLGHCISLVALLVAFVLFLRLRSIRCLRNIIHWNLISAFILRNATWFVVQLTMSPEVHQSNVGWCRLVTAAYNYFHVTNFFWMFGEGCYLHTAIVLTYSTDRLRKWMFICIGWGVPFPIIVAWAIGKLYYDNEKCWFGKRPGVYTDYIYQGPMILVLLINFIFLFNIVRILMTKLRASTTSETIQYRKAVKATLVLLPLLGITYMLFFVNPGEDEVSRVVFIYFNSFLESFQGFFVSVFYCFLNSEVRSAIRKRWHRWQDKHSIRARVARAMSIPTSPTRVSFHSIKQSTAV
Experimental: The purpose of this example was to test the in vitro binding of the compounds of the invention to receptor subtypes CRF1 and CRF2. The in vitro binding of the compounds was determined in a scintillation proximity assay (SPA) as described below. The native, human Ucn1 and Ucn2 peptides are included as references. Scintillation Proximity Assay: […] Both cell lines were cultured at 37° C. in a humidified atmosphere with 5% CO2. […] Membranes were prepared by the following protocol: cultured cells were washed twice with cold Dulbecco’s phosphate buffered saline and detached using TrypLE™ (ThermoFisher) and transferred to tubes and centrifuged for 5 minutes at 1000 g at +4° C. Pellets were resuspended in ice cold homogenization buffer (20 mM Hepes pH 7.1, 5 mM MgCl2, 1 mg/ml Bacitracin with 2 complete EDTA-free protease inhibitor cocktail tablets/50 ml (Roche)) and then homogenized for 30 seconds using a Ultra-Turrax T25 tissue homogenizer (IKA) at medium speed. The homogenate was centrifuged at 35,000 g for 15 minutes at +4° C. using an ultracentrifuge, and the supernatant was discarded, and fresh homogenization buffer was added. Homogenization of the pellet was repeated a total of three times. The final pellet was resuspended in a few millilitres of homogenization buffer and protein concentration was determined using the Bradford method. The membrane preparation was transferred to cryotubes, and the aliquots were stored at -80° C. Each membrane preparation was subsequently titrated to give an appropriate window in the assay. Test procedure: […] Plates were sealed and incubated at 25° C. for 2 hours in a plate shaker set at 400 rpm and thereafter centrifuged at 1500 rpm for 10 minutes. SPA plates were let to stand at room temperature for about 16 hours prior to reading on microplate scintillation counter. Displacement of radioligand was measured as reduction in luminescence, and IC50 values were calculated by nonlinear regression analysis of four parameter sigmoidal dose-response curves.

[2] = target: T1, Human CRF1 receptor; experiment: CRF1 receptor CHO cell β-Arrestin recruitment assay (PathHunter); assay type: cell-based; conditions: CHO-K1 cells, 0.1% ovalbumin
Experimental: The purpose of this investigation was to test the in vitro agonistic activity (potency) of the compounds of the invention to receptor subtype CRF1 and CRF2. […] The native, human Ucn1 and Ucn2 peptides were included as references. Assay principle: Activated G-protein coupled receptors (GPCRs) can interact with the Arrestin family of signalling proteins. The potency of peptides for CRF induced Arrestin recruitment is determined using the PathHunter Enzyme Fragment Complementation approach substantially as described in von […] et al., FASEB J., 2007, 3819, 26 and Hamdouchi et al., J. Med. Chem., 2016, 59, 10891-10916. The target GPCR is tagged with the small fragment of β-gal called ProLinkTM, a low affinity version of enzyme donor and co-expressed in cells stably expressing β-Arrestin tagged with enzyme acceptor. Activation of the GPCR stimulates binding of β-Arrestin to the ProLink-tagged GPCR, forcing complementation of ProLink and enzyme acceptor, resulting in the formation of an active β-gal enzyme. The resulting active enzyme hydrolyses substrate present in the PathHunter detection reagents to generate light. […] Plates were first incubated for 90 minutes in a 37° C., 5% CO2 incubator and then 5 μL of PathHunter detection reagent was added (DiscoveRx, 93-0001) and the plates were incubated at room temperature for 60 minutes after which the luminescence signal was measured (BMG […]). […]

| IC50 [1] | EC50 [2] | Compound |
| --- | --- | --- |
| > 1 µM | > 10 µM | CC[C@H](C)[C@H](NC(=O)[C@H](CCC(=O)O)NC(=O)[C@H](C)NC(=O)[C@H](CC(N)=O)NC(=O)[C@@H](NC(=O)[C@@H](NC(=O)[C@H](C)NC(=O)[C@H](CCC(N)=O)NC(=O)[C@H](CCC(=O)O)NC(=O)[C@H](CCCNC(=N)N)NC(=O)[C@H](C)NC(=O)[C@H](C)NC(=O)[C@H](CCCNC(=N)N)NC(=O)[C@H](C)NC(=O)[C@H](CCCNC(=N)N)NC(=O)[C@H](C)NC(=O)[C@H](CCC(N)=O)NC(=O)[C@H](CCC(=O)O)NC(=O)[C@H](CC(C)C)NC(=O)[C@H](CC(C)C)NC(=O)[C@@H](NC(=O)[C@H](CCC(N)=O)NC(=O)[C@H](CC(C)C)NC(=O)[C@H](CC(C)C)NC(=O)CNC(=O)[C@@H](NC(=O)[C@@H]1CCCN1C(=O)[C@@H](NC(=O)[C@H](CC(=O)O)NC(=O)[C@H](CC(C)C)NC(=O)[C@H](CO)NC(=O)[C@H](CC(C)C)NC(=O)[C@@H](NC(=O)[C@@H](NC(=O)[C@@H](N)CCCCNC(=O)COCCOCCNC(=O)COCCOCCNC(=O)CC[C@H](NC(=O)CC[C@H](NC(=O)CC[C@H](NC(=O)CCCCCCCCCCCCCCCCCCC(=O)O)C(=O)O)C(=O)O)C(=O)O)[C@@H](C)CC)C(C)C)C(C)C)[C@@H](C)CC)[C@@H](C)CC)[C@@H](C)O)[C@@H](C)O)C(=O)N[C@@H](CC(C)C)C(=O)N[C@@H](C)C(=O)N[C@@H](CCC(=O)O)C(=O)N[C@H](C(N)=O)C(C)C [Compound 3] (H-K([AEEA-AEEA-γGlu-γGlu-γGlu-C20 diacid])IVLSLDVPIGLLQILLEQARARAAREQATTNAEILAEV-NH2) |
| > 1 µM | > 10 µM | CC[C@H](C)[C@H](NC(=O)[C@H](CCC(=O)O)NC(=O)[C@H](C)NC(=O)[C@H](CC(N)=O)NC(=O)[C@@H](NC(=O)[C@@H](NC(=O)[C@H](C)NC(=O)[C@H](CCC(N)=O)NC(=O)[C@H](CCC(=O)O)NC(=O)[C@H](CCCNC(=N)N)NC(=O)[C@H](C)NC(=O)[C@H](C)NC(=O)[C@H](CCCNC(=N)N)NC(=O)[C@H](C)NC(=O)[C@H](CCCNC(=N)N)NC(=O)[C@H](C)NC(=O)[C@H](CCC(N)=O)NC(=O)[C@H](CCC(=O)O)NC(=O)[C@H](CC(C)C)NC(=O)[C@H](CC(C)C)NC(=O)[C@@H](NC(=O)[C@H](CCC(N)=O)NC(=O)[C@H](CC(C)C)NC(=O)[C@H](CC(C)C)NC(=O)CNC(=O)[C@@H](NC(=O)[C@@H]1CCCN1C(=O)[C@@H](NC(=O)[C@H](CC(=O)O)NC(=O)[C@H](CC(C)C)NC(=O)[C@H](CO)NC(=O)[C@H](CC(C)C)NC(=O)[C@@H](NC(=O)[C@@H](NC(=O)[C@@H](N)CCCCNC(=O)COCCOCCNC(=O)COCCOCCNC(=O)CC[C@H](NC(=O)CC[C@H](NC(=O)CC[C@H](NC(=O)CCCCCCCCCCCCCCCCCCC(=O)O)C(=O)O)C(=O)O)C(=O)O)[C@@H](C)CC)C(C)C)C(C)C)[C@@H](C)CC)[C@@H](C)CC)[C@@H](C)O)[C@@H](C)O)C(=O)N[C@@H](CC(C)C)C(=O)N[C@@H](CCC(=O)O)C(=O)N[C@@H](CCCNC(=N)N)C(=O)N[C@H](C(N)=O)C(C)C [Compound 4] (H-K([AEEA-AEEA-γGlu-γGlu-γGlu-C20 diacid])IVLSLDVPIGLLQILLEQARARAAREQATTNAEILERV-NH2) |
